“Also recorded” adds a separate entry of the source.
Legend:
[1] = tested on: oligodendrocytes derived from the optic nerve; assay: MTA toxicity profile in cultured oligodendrocytes (calcein-AM); type: cell-based; details: MTA 1 μM-3 mM for 24 hours
Description: Primary cultures of oligodendrocytes derived from optic nerves of 12-d-old Sprague Dawley rats were obtained as described previously (Barres et al., 1992). Cells were seeded into 24-well plates bearing 12-mm-diameter coverslips coated with poly-D-lysine (10 μg/ml) at a density of 5×10^3 cells per well. Cells were maintained at 37° C. and 5% CO2 in a chemically defined medium (Barres et al., 1992, Cell 70:31-46). After 2-4 d in vitro, cultures were composed of at least 98% O4/galactocerebroside-positive (O4/Ga1C_) cells; the majority of the remaining cells were stained with antibodies to glial fibrillary acidic protein (GFAP). No A2B5+ or microglial cells were detected in these cultures (Alberdi et al., 2002, Neurobiol Dis 9:234-243).
Cell toxicity and viability assays were performed as described previously (Sánchez-Gómez and Matute, 1999, Neurobiol Dis 6:475-485). For evaluating the MTA toxicity, cells at 2-4 d in culture were exposed for 24 hours to that drug and cell viability assessed using calcein-AM (Invitrogen). […] Twenty-four hours after drug application, cell viability was assessed using calcein-AM (Invitrogen). The total number of surviving cells on each coverslip emitting calcein fluorescence was counted, and results were expressed as percentage of cell death versus control. Results were expressed as the mean±SEM of at least three independent experiments performed in duplicate. […]

[2] = tested on: isolated optic nerve; assay: Simulated ischemia (OGD) in isolated optic nerves, LDH release; parameters: species or system Sprague Dawley rats; details: 1 h ischemia with iodoacetate + 2 h reperfusion; MTA 100-300 μM
Description: Ischemic damage was induced by substituting […] and adding 1 mM of the glyocolytic blocker iodoacetate (1 mM) for 1 h followed by 2 h of reperfusion in […] aCSF. Optic nerves during ischemia and reperfusion were incubated with vehicle, for controls, and with MTA or glutamate receptor antagonists, and subsequently processed for LDH release assay. The results are the mean±SEM of at least three different experiments performed in duplicate.
Cell viability in oligodendrocyte cultures was assayed after 24 h of exposure to MTA (1 μM to 3 mM) calcein-AM assays respectively followed by fluorimetry measurements (Synergy-HT). Oligodendrocyte protection from excitotoxicity and optic nerve damage after ischemia (1 hour+2 hours reperfusion) were examined using lactate dehydrogenase release assays in the presence or absence of MTA (100-300 μM for 3 hours).

[3] = tested on: pure rat cortical neuronal culture; assay: NMDA-mediated toxicity (LDH release) in pure neuronal culture; type: cell-based, Sprague-Dawley rat; details: NMDA 300 μM, MTA 100 to 500 μM
Description: Primary cultures of brain cortical neurons were essentially prepared as described previously (Bruno et al., 2001, Eur. J. Neurosci., 13:1469-1478). The fronto-lateral cortical lobes were dissected out of Sprague-Dawley embryonic day 17 foetuses and were mechanically dissociated in Hanks' balanced solution. The cortical lobes were triturated by aspirating 7-10 times using a Pasteur pipette with a flame-narrowed tip. After centrifugation at 800 g for 5 min, cells were resuspended in serum-free Neurobasal medium (GIBCO) supplemented with B27 (GIBCO) containing 2 mM L-glutamine, penicillin (20 units/ml) and streptomycin (5 μg/ml) and plated on poly-L-lysine-coated 24-well culture plates or on poly-L-lysine-coated 6-well culture plates. […]
For viability experiments, cortical neurons or mixed cortical neurons and glia, seeded onto 24-well plates at 15×10^4 cells/well and cultured for 7 DIV, were treated with vehicle (DMSO 1‰), NMDA (300 μM), NMDA (300 μM)+MTA (at different concentrations) or NMDA (300 μM)+MK-801 (10 μM) for 6 h and 24 h. […] Lactate dehydrogenase (LDH) activity was measured as an index of cellular death and mortality was expressed as percentage of LDH released to culture media. LDH was measured spectrophotometrically at 490 nm on a 96-well plate reader by using the Cytotox 96 Kit according to the manufacturer instructions (Promega). […]

[4] = tested on: cerebellar organotypic cultures; assay: LPS neuroinflammation model in cerebellar organotypic cultures: demyelination and axonal damage (immunofluorescence, Western blot); type: cell-based, C57/B16 wild type mice; details: 192 μM MTA pre-treatment for half hour, 15 μg/ml LPS, 24 hrs
Excerpt: (§1) Organotypic cultures model of neuroinflammation is based on previous observations in which systemic injections of lipopolysaccharide (LPS) in mice spinal cord induce inflammation, demyelinization and Wallerian degeneration. In mice cerebellar organotypic cultures, LPS induces microglia activation with consequent demyelination and axonal damage. In particular, LPS induces TNF-alpha, IL1-beta release, axonal swelling and end bulbs due to axonal transport block, and a decrease of axonal density. Organotypic cultures represent the best model to represent in vivo mechanisms since they maintain cell-cell interaction and organotypic structure of brain region studied. In this way, this in vitro neuroinflammation model reproduces the microglia activation, demyelinization and axonal damage phenomena observed in MS.
(§2) Cerebellar organotypic cultures which were pre-treated for half hour with 192 μM of MTA and 15 μg/ml of LPS have been used to generate neuroinflammation model.
(§3) 2. Data analysis: Western blot, immunofluorescence and ELISA analysis were performed using conventional techniques.

[5] = tested on: IL-1β release; assay: LPS neuroinflammation model in cerebellar organotypic cultures: IL1-beta ELISA; type: cell-based, C57/B16 wild type mice; details: 192 μM MTA pre-treatment, 15 μg/ml LPS, 3 hrs
Excerpt: as §1, §2, §3

[6] = tested on: MAPK, p38/SAPK and STAT3 pathways; assay: Intracellular phosphorylation in PC12 cells (Luminex); type: cell-based, rat; details: PC12 cells after MTA-induced differentiation, four days
Excerpt: The phosphorylation of different intracellular proteins was detected using Luminex technology. After the neurite differentiation assay the PC12 cells were received in lysis buffer and tested using different antibodies: total Akt/PKB, total p38/SAPK, total STAT3, total ERK/MAPK, total P70 S6 Kinase, phosphorolyated Akt/PKB (Ser473), phosphorylated Akt/PKB (Thr 308), phosphorylated p38/SAPK (Thr180/Tyr182), phosphorilyated STAT 3 (Tyr705/Ser 727), phosphorylated ERK/MAPK (Thr185/Tyr187) and phosphorylated P70 S6 Kinase (Thr412).

With CSC[C@H]1O[C@@H](n2cnc3c(N)ncnc32)[C@H](O)[C@@H]1O [MTA, 5′-methylthioadenosine] the “MTA concentrations at which significant toxicity was observed (calcein-AM)” value [1] was “above 300 μM”, the “OGD/ischemia-induced damage in isolated optic nerve (LDH release)” value [2] was “similarly protective” and the “effect on NMDA-mediated toxicity (LDH release)” value [3] was “no neuroprotective effect; also recorded: Lack of effect”. For the same molecule, the “demyelination and axonal damage (MBP/NFL immunofluorescence, CNPase/APP Western blot)” value [4] was “prevents; also recorded: absents”, the “IL-1β release (ELISA)” value [5] was “decreases; also recorded: minor quantity” and the “phosphorylation of intracellular proteins: MAPK, p38/SAPK and STAT3 pathways” value [6] was “activation”.

From patent US20120083464A1, “NEUROPROTECTIVE PROPERTIES OF 5'-METHYLTHIOADENOSINE” (priority 2009, published 2012)
